Test results reported in PMC12153338, “Resistance to oxyimino-cephalosporins conferred by an alternative mechanism of hydrolysis by the Acinetobacter-derived cephalosporinase-33 (ADC-33), a class C β-lactamase present in carbapenem-resistant Acinetobacter baumannii (CRAb)” (mBio, 2025).
≈ marks a conversion by molar mass, not a printed value.

Legend:
[1] = system: DH10B alone; assay: MIC by broth microdilution, DH10B alone; assay type: cell-based; conditions: Escherichia coli; DH10B alone (control strain); FDC in iron-depleted cation-adjusted MH broth
Protocol: (§1) Susceptibility testing to standard antibiotics was performed by broth microdilution according to 2024 Clinical and Laboratory Standards Institute (CLSI) guidelines ([38]). MICs for FDC were done in iron-depleted cation-adjusted Mueller-Hinton (MH) broth according to CLSI methods. All MICs were interpreted according to the 2024 CLSI guidelines ([38]). MICs are done in triplicate, and the mode MIC value is reported.
(§2) blaADC-7 pBCSK− was cloned and expressed in E. coli DH10B cells as previously described for MIC determinations ([3]). The pBCSK-non-inducible phagemid vector has a chloramphenicol resistance gene used to aid selection. All other blaADC variants were synthesized by GenScript according to the blaADC-7 pBCSK− strategy, cloning into the XbaI/BamHI sites of the pBCSK− vector ([5]).

[2] = system: ADC-33 in DH10B Escherichia coli; assay: MIC by broth microdilution, ADC-33 in DH10B E. coli; assay type: cell-based; conditions: DH10B E. coli expressing ADC-33 (Adup) from pBCSK−, FDC in iron-depleted cation-adjusted MH broth, mode of triplicate
Protocol: as §1, §2

[3] = target: ADC-172 (Acinetobacter baumannii, UniProt A7Y407, N321K); assay: Competition kinetics with nitrocefin (Ki), ADC-172; assay type: biochemical; conditions: 3 min pre-incubation, Cheng-Prusoff corrected
Protocol: (§3) For inhibition kinetics, utilizing NCF as a colorimetric substrate of ADCs, the inhibition constant (Ki) of CAZ and FDC with ADCs was determined using competition kinetics as previously described ([5]). After a 3 min pre-incubation of the enzyme (2 nM) with increasing concentration of the inhibitor, measurements of the initial velocities were performed with the addition of 100–200 µM NCF (twofold of the experimentally determined KM value). To determine the average velocities (v0), data from three experiments were fit to the followingequation: […]
(§4) where vu represents the NCF uninhibited velocity and IC50 represents the inhibitor concentration that results in a 50% reduction of vu. The Ki value was corrected for the NCF affinity (KM values for each ADC) with the Cheng-Prusoff ([5]) equation: […]
(§5) The standard error for Ki values was generated by factoring in the larger of the proportional standard errors for the individual IC50 value and the KM -NCF value.

[4] = system: ADC-73 in DH10B Escherichia coli; assay: MIC by broth microdilution, ADC-73 in DH10B E. coli; assay type: cell-based; conditions: DH10B E. coli expressing ADC-73 (non-Adup) from pBCSK−, FDC in iron-depleted cation-adjusted MH broth, mode of triplicate
Protocol: as §1, §2

[5] = system: ADC-7 in DH10B Escherichia coli; assay: MIC by broth microdilution, ADC-7 in DH10B E. coli; assay type: cell-based; conditions: DH10B E. coli expressing ADC-7 (non-Adup) from pBCSK−, FDC in iron-depleted cation-adjusted MH broth, mode of triplicate
Protocol: as §1, §2

[6] = target: T1, ADC-33 (Acinetobacter baumannii, UniProt A7Y407); assay: Thermal denaturation by circular dichroism, ADC-33; assay type: binding; conditions: ADC-33 12 µM, 1 mM antibiotic, PBS pH 7.4
Protocol: (§6) For thermal denaturation, protein samples were monitored for helical content by circular dichroism in the far-UV region at 210 and 220 nm using a Jasco J-815 spectrometer (Easton, MD) with a Peltier-effect temperature controller, as previously described ([41]). Enzyme concentrations were 12 µM in phosphate-buffered saline (PBS) pH 7.4. The thermodynamic stability of apoADC-30 and ADC-33, and with 1 mM FDC and CAZ, was determined from equilibrium unfolding curves. With the assumption of a reversible two-state transition, we determined the Tm at the midpoint of equilibrium folding. Thermal denaturation experiments were done in duplicate under the same conditions, with each data point representing the average of three successive scans, and the Tm values are consistent with ±1°C variation.

[7] = target: ADC-30 (Acinetobacter baumannii, UniProt A7XM81); assay: Thermal denaturation by circular dichroism, ADC-30; assay type: binding; conditions: ADC-30 12 µM, 1 mM antibiotic, PBS pH 7.4
Protocol: as §6

[8] = target: T1, ADC-33; assay: Competition kinetics with nitrocefin (Ki), ADC-33; assay type: biochemical; conditions: 3 min pre-incubation, Cheng-Prusoff corrected
Protocol: as §3, §4, §5

[9] = system: ADC-30 in DH10B Escherichia coli; assay: MIC by broth microdilution, ADC-30 in DH10B E. coli; assay type: cell-based; conditions: DH10B E. coli expressing ADC-30 (non-Adup) from pBCSK−, FDC in iron-depleted cation-adjusted MH broth, mode of triplicate
Protocol: as §1, §2

[10] = target: ADC-73 (Acinetobacter baumannii, UniProt A0A059ZDI2); assay: Competition kinetics with nitrocefin (Ki), ADC-73; assay type: biochemical; conditions: 3 min pre-incubation, Cheng-Prusoff corrected
Protocol: as §3, §4, §5

CC(C)(O/N=C(\C(=O)N[C@@H]1C(=O)N2C(C(=O)[O-])=C(C[n+]3ccccc3)CS[C@H]12)c1csc(N)n1)C(=O)O [CAZ, ceftazidime]
MIC [1]: 0.5 µg/mL (≈ 0.915 µM)
MIC [2]: 1020 µg/mL (≈ 1870 µM)
Ki [3]: 12.7 ± 1.45 µM
MIC [4]: 64 µg/mL (≈ 117 µM)
MIC [5]: 64 µg/mL (≈ 117 µM)
change of Tm of the β-lactamase on addition of antibiotic [6]: does not alter the Tm
change of Tm of the β-lactamase on addition of antibiotic [7]: does not alter the Tm
Ki [8]: 28.4 ± 2.09 µM
MIC [9]: 64 µg/mL (≈ 117 µM)
Ki [10]: 8.72 ± 0.74 µM
